From US20110046040A1, “Microorganism-inactivating agent” (CHISSO CORPORATION, priority 2009, published 2011)

Experiments:
Type in all cases: cell-based
Salmonella enterica = assay: inactivation with further addition of the microorganism after predetermined periods; details: ε-poly-L-lysine 5 ppm
Method: (§1) Each test microbe was inoculated to nutrient broth and cultured with shaking at the optimum temperature of the test microbe until the late logarithmic phase. From the microbe culture, the microbe was collected, and the collected microbe was washed with 1.5 mL of physiological saline 2 to 3 times (centrifugation at 13000 rpm for 1 minute) and suspended in 1.5 mL of physiological saline. From the suspension, a 1 mL aliquot was recovered, and this was added to 9 mL of sterile water, followed by sufficient stirring of the resulting suspension (this was used as 10^−1 dilution). From the 10^−1 dilution, 10^−2 to 10^−8 dilutions were sequentially prepared. Each dilution was smeared on a film medium (Sanita-kun; for E. coli and coliform bacteria, for Staphylococcus aureus, for Salmonella, for aerobic bacteria or for fungi: Chisso Corporation) in an amount of 1 mL, followed by culturing at the optimum temperature of the test microbe for 24 to 72 hours and measurement of the number of cells on the film medium.
(§2) To a sterilized beaker, 500 mL of sterilized water was placed, and 0.20 mL of microbe culture of 10^6 to 10^10 cells/mL was inoculated thereto, to attain an initial cell number of 10^3 to 10^7 cells/mL. Unless otherwise specified, the pH was 6 to 8. After stirring the suspension gently for 5 minutes, PGα21Ca (Nippon Poly-Glu Co., Ltd.) and/or a microbiostatic agent or microbicide was/were added thereto such that a predetermined final concentration(s) was/were attained. After gentle stirring at room temperature for 10 to 15 minutes, the suspension was left to stand for a predetermined length of time. The supernatant was collected and diluted appropriately in an antimicrobial agent-inactivating medium (BHI medium or the like), and 1 mL each of the resulting diluent was smeared on a film medium. Culturing was carried out at the optimum temperature of each test microbe for 24 to 72 hours and the number of cells (cells/mL) on the film medium was measured.
(§3) (3) The inactivation effect of ε-poly-L-lysine, which is a microbicide related to the microorganism-inactivating agent of the present invention, upon its single application to water containing Escherichia coli, Salmonella or Staphylococcus, followed by further addition of the respective microorganisms after predetermined periods of time was studied. The addition of the microorganisms was carried out at 24, 48, 72 and 144 hours after sampling. ε-poly-L-lysine was added at a concentration of 5 ppm. […]

Escherichia coli = assay: as above; details: ε-poly-L-lysine 5 ppm
Method: as §1, §2, §3

Staphylococcus aureus = assay: as above; details: ε-poly-L-lysine 5 ppm
Method: as §1, §2, §3

Pseudomonas aeruginosa = assay: inactivation of microorganisms in water, number of cells in supernatant
Method: as §1, §2

Salmonella choleraesuis = assay: as above
Method: as §1, §2

Listeria monocytogenes = assay: as above
Method: as §1, §2

Bacillus cereus = assay: as above
Method: as §1, §2

Bacillus subtilis = assay: as above
Method: as §1, §2

Klebsiella pneumoniae = assay: as above
Method: as §1, §2

[1] = further addition of microbe at 24 h (3.2 × 10^7)
[2] = further addition of microbe at 48 h (3.6 × 10^6)
[3] = further addition of microbe at 72 h (3.0 × 10^6)
[4] = further addition of microbe at 144 h (3.1 × 10^6)
[5] = further addition of microbe at 24 h (1.3 × 10^8)
[6] = further addition of microbe at 48 h (5.0 × 10^6)
[7] = further addition of microbe at 72 h (6.6 × 10^6)
[8] = further addition of microbe at 144 h (1.2 × 10^7)
[9] = further addition of microbe at 24 h (2.2 × 10^7)
[10] = further addition of microbe at 48 h (1.4 × 10^6)
[11] = further addition of microbe at 72 h (6.1 × 10^6)
[12] = further addition of microbe at 144 h (7.9 × 10^6)
[13] = ε-poly-L-lysine 10 ppm, 0 minute later 6.2 × 10^5
[14] = ε-poly-L-lysine 5 ppm, initial 1.2 × 10^7
[15] = ε-poly-L-lysine 10 ppm, 0 minute later 3.2 × 10^5
[16] = ε-poly-L-lysine 10 ppm, initial 1.2 × 10^7
[17] = ε-poly-L-lysine 10 ppm, 0 minute later 8.1 × 10^4
[18] = ε-poly-L-lysine 10 ppm, 0 minute later 7.5 × 10^4
[19] = ε-poly-L-lysine 10 ppm, 0 minute later 2.9 × 10^4
[20] = ε-poly-L-lysine 10 ppm, 0 minute later 3.3 × 10^5

## ε-poly-L-lysine
Salmonella enterica; [1]
  number of cells, elapsed time 26 hours: <10 cells/mL
  number of cells, elapsed time 28 hours: <10 cells/mL
  number of cells, elapsed time 48 hours: <10 cells/mL
Salmonella enterica; [2]
  number of cells, elapsed time 50 hours: <10 cells/mL
  number of cells, elapsed time 52 hours: <10 cells/mL
  number of cells, elapsed time 72 hours: <10 cells/mL
Salmonella enterica; [3]
  number of cells, elapsed time 74 hours: <10 cells/mL
  number of cells, elapsed time 76 hours: <10 cells/mL
  number of cells, elapsed time 96 hours: <10 cells/mL
  number of cells, elapsed time 144 hours: <10 cells/mL
Salmonella enterica; [4]
  number of cells, elapsed time 146 hours: <10 cells/mL
  number of cells, elapsed time 148 hours: <10 cells/mL
  number of cells, elapsed time 168 hours: <10 cells/mL
Salmonella enterica; initial 3.0 × 10^6
  number of cells, elapsed time 2 hours: <10 cells/mL
  number of cells, elapsed time 4 hours: <10 cells/mL
  number of cells, elapsed time 24 hours: <10 cells/mL
Escherichia coli; [5]
  number of cells, elapsed time 26 hours: <10 cells/mL
  number of cells, elapsed time 28 hours: <10 cells/mL
  number of cells, elapsed time 48 hours: <10 cells/mL
Escherichia coli; [6]
  number of cells, elapsed time 50 hours: <10 cells/mL
  number of cells, elapsed time 52 hours: <10 cells/mL
  number of cells, elapsed time 72 hours: <10 cells/mL
Escherichia coli; [7]
  number of cells, elapsed time 74 hours: <10 cells/mL
  number of cells, elapsed time 76 hours: <10 cells/mL
  number of cells, elapsed time 96 hours: <10 cells/mL
  number of cells, elapsed time 144 hours: <10 cells/mL
Escherichia coli; [8]
  number of cells, elapsed time 146 hours: <10 cells/mL
  number of cells, elapsed time 148 hours: <10 cells/mL
  number of cells, elapsed time 168 hours: <10 cells/mL
Escherichia coli; initial 1.0 × 10^6
  number of cells, elapsed time 2 hours: <10 cells/mL
  number of cells, elapsed time 4 hours: <10 cells/mL
  number of cells, elapsed time 24 hours: <10 cells/mL
Staphylococcus aureus; [9]
  number of cells, elapsed time 26 hours: 2.2 × 10^6 cells/mL
  number of cells, elapsed time 28 hours: 2.1 × 10^5 cells/mL
  number of cells, elapsed time 48 hours: <10 cells/mL
Staphylococcus aureus; [10]
  number of cells, elapsed time 50 hours: 2.5 × 10^4 cells/mL
  number of cells, elapsed time 52 hours: 1.2 × 10^4 cells/mL
  number of cells, elapsed time 72 hours: <10 cells/mL
Staphylococcus aureus; [11]
  number of cells, elapsed time 74 hours: 1.7 × 10^3 cells/mL
  number of cells, elapsed time 76 hours: 20 cells/mL
  number of cells, elapsed time 96 hours: <10 cells/mL
  number of cells, elapsed time 144 hours: <10 cells/mL
Staphylococcus aureus; [12]
  number of cells, elapsed time 146 hours: 1.0 × 10^3 cells/mL
  number of cells, elapsed time 148 hours: 90 cells/mL
  number of cells, elapsed time 168 hours: <10 cells/mL
Staphylococcus aureus; initial 2.0 × 10^6
  number of cells, elapsed time 2 hours: <10 cells/mL
  number of cells, elapsed time 4 hours: <10 cells/mL
  number of cells, elapsed time 24 hours: <10 cells/mL
Pseudomonas aeruginosa; 10 ppm, pH 8, initial 2.0 × 10^5
  number of cells 2 hours later: <10 cells/mL
Pseudomonas aeruginosa; [13]
  number of cells 5 minutes later: 2.16 × 10^4 cells/mL
  number of cells 15 minutes later: 240 cells/mL
  number of cells 60 minutes later: 20 cells/mL
  number of cells 120 minutes later: <10 cells/mL
Salmonella choleraesuis; 10 ppm, pH 8, initial 4.7 × 10^4
  number of cells 2 hours later: <10 cells/mL
Salmonella choleraesuis; [14]
  number of cells 0.5 hour later: 50 cells/mL
  number of cells 1 hour later: 20 cells/mL
  number of cells 2 hours later: <10 cells/mL
Salmonella choleraesuis; [15]
  number of cells 5 minutes later: 480 cells/mL
  number of cells 15 minutes later: 1.4 × 10^3 cells/mL
  number of cells 60 minutes later: 120 cells/mL
  number of cells 120 minutes later: <10 cells/mL
Salmonella choleraesuis; [16]
  number of cells 0.5 hour later: <10 cells/mL
  number of cells 1 hour later: <10 cells/mL
  number of cells 2 hours later: <10 cells/mL
Listeria monocytogenes; 10 ppm, pH 8, initial 2.0 × 10^4
  number of cells 2 hours later: <10 cells/mL
Listeria monocytogenes; [17]
  number of cells 5 minutes later: 780 cells/mL
  number of cells 15 minutes later: 40 cells/mL
  number of cells 60 minutes later: 20 cells/mL
  number of cells 120 minutes later: <10 cells/mL
Bacillus cereus; 10 ppm, pH 8, initial 9.5 × 10^4
  number of cells 2 hours later: 290 cells/mL
Bacillus cereus; [18]
  number of cells 5 minutes later: 140 cells/mL
  number of cells 15 minutes later: 110 cells/mL
  number of cells 60 minutes later: 80 cells/mL
  number of cells 120 minutes later: <10 cells/mL
Bacillus subtilis; 10 ppm, pH 8, initial 6.0 × 10^4
  number of cells 2 hours later: <10 cells/mL
Bacillus subtilis; [19]
  number of cells 5 minutes later: 4 × 10^3 cells/mL
  number of cells 15 minutes later: 30 cells/mL
  number of cells 60 minutes later: <10 cells/mL
  number of cells 120 minutes later: <10 cells/mL
Klebsiella pneumoniae; 10 ppm, pH 8, initial 1.3 × 10^5
  number of cells 2 hours later: <10 cells/mL
Klebsiella pneumoniae; [20]
  number of cells 5 minutes later: 1.8 × 10^4 cells/mL
  number of cells 15 minutes later: 1.87 × 10^3 cells/mL
  number of cells 60 minutes later: 10 cells/mL
  number of cells 120 minutes later: <10 cells/mL
